Several values for one entry are separate records, joined by “and”; a condition that tells them apart may be missing. Equal values may be shown once. Toxic doses and inconclusive results are not listed.
System: CD2F1 mice, L1210 leukemia ip, survival T/C
Test: NCI In Vivo Anticancer Drug Screen. Data for tumor model L1210 Leukemia (intraperitoneal) in CD2F1 (CDF1) mice
Conditions: endpoint: mean survival time, higher = longer survival
Outline: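 Tumor-bearing mice (transplanted tumor) were split into treated and vehicle control groups, and the measured endpoint of each treated group was divided by that of its vehicle controls.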

## S=c1nc[nH]c2nc[nH]c12
dose: 8.0 mg/kg/injection, schedule: Q03HX024 (ip), vehicle: alkali diluted with water
  T/C: 155 % of control
dose: 9.38 mg/kg/injection, schedule: Q01DX009 (ip), vehicle: alkali diluted with saline
  T/C: 119 % of control
dose: 10.0 mg/kg/injection, schedule: Q01DX005 (ip), vehicle: alkali diluted with saline
  T/C: 113 % of control
dose: 10.0 mg/kg/injection, schedule: Q01DX005 (ip), vehicle: alkali diluted with water
  T/C: 98 % of control
dose: 16.0 mg/kg/injection, schedule: Q03HX024 (ip), vehicle: alkali diluted with water
  T/C: 160 % of control
dose: 18.8 mg/kg/injection, schedule: Q01DX009 (ip), vehicle: alkali diluted with saline
  T/C: 113 % of control
dose: 19.4 mg/kg/injection, schedule: Q04DX003 (ip), vehicle: alkali diluted with saline
  T/C: 101 % of control
dose: 20.0 mg/kg/injection, schedule: Q01DX007 (ip), vehicle: saline
  T/C: 116 % of control
dose: 20.0 mg/kg/injection, schedule: Q01DX009 (ip), vehicle: alkali diluted with water
  T/C: 114 % of control
dose: 20.0 mg/kg/injection, schedule: Q01DX009 (ip), vehicle: other
  T/C: 121 % of control
dose: 20.0 mg/kg/injection, schedule: Q01DX009 (ip), vehicle: saline
  T/C: 120 % of control
dose: 20.0 mg/kg/injection, schedule: Q04DX002 (ip), vehicle: saline
  T/C: 120 % of control
dose: 28.13 mg/kg/injection, schedule: Q04DX003 (ip), vehicle: alkali diluted with saline
  T/C: 95 % of control
dose: 30.0 mg/kg/injection, schedule: Q## X006 (ip), vehicle: saline
  T/C: 101 % of control
dose: 37.5 mg/kg/injection, schedule: Q01DX009 (ip), vehicle: alkali diluted with saline
  T/C: 122 % of control
dose: 40.0 mg/kg/injection, schedule: Q01DX005 (ip), vehicle: saline
  T/C: 150 % of control
dose: 40.0 mg/kg/injection, schedule: Q01DX005 (ip), vehicle: sodium bicarbonate
  T/C: 116 % of control
dose: 40.0 mg/kg/injection, schedule: Q01DX009 (ip), vehicle: other
  T/C: 166 % of control and 167 % of control
dose: 40.0 mg/kg/injection, schedule: Q03DX003 (ip), vehicle: saline
  T/C: 113 % of control
dose: 40.0 mg/kg/injection, schedule: Q04DX003 (ip), vehicle: saline
  T/C: 116 % of control
dose: 60.0 mg/kg/injection, schedule: Q## X009 (ip), vehicle: saline
  T/C: 122 % of control
dose: 66.0 mg/kg/injection, schedule: Q04DX003 (ip), vehicle: saline
  T/C: 163 % of control
dose: 75.0 mg/kg/injection, schedule: Q01DX009 (ip), vehicle: alkali diluted with saline
  T/C: 156 % of control and 170 % of control
dose: 80.0 mg/kg/injection, schedule: Q01DX001 (ip), vehicle: alkali diluted with water
  T/C: 120 % of control
dose: 80.0 mg/kg/injection, schedule: Q01DX005 (ip), vehicle: saline with Tween-80
  T/C: 168 % of control
dose: 80.0 mg/kg/injection, schedule: Q01DX005 (ip), vehicle: saline
  T/C: 170 % of control and 172 % of control
dose: 80.0 mg/kg/injection, schedule: Q01DX005 (ip), vehicle: sodium bicarbonate
  T/C: 157 % of control
dose: 80.0 mg/kg/injection, schedule: Q01DX007 (ip), vehicle: saline
  T/C: 158 % of control
dose: 80.0 mg/kg/injection, schedule: Q01DX009 (ip), vehicle: alkali diluted with saline
  T/C: 150 % of control
dose: 80.0 mg/kg/injection, schedule: Q01DX009 (ip), vehicle: alkali diluted with water
  T/C: 150 % of control and 158 % of control
dose: 80.0 mg/kg/injection, schedule: Q01DX009 (ip), vehicle: other
  T/C: 156 % of control
dose: 80.0 mg/kg/injection, schedule: Q01DX009 (ip), vehicle: saline
  T/C: 156 % of control
dose: 80.0 mg/kg/injection, schedule: Q04DX002 (ip), vehicle: saline
  T/C: 150 % of control
dose: 90.0 mg/kg/injection, schedule: Q## X002 (ip), vehicle: saline
  T/C: 153 % of control
dose: 125.0 mg/kg/injection, schedule: Q01DX001 (ip), vehicle: alkali diluted with saline
  T/C: 120 % of control
dose: 150.0 mg/kg/injection, schedule: Q01DX009 (ip), vehicle: alkali diluted with saline
  T/C: 113 % of control and 95 % of control
dose: 150.0 mg/kg/injection, schedule: Q04DX003 (ip), vehicle: alkali diluted with saline
  T/C: 155 % of control
dose: 160.0 mg/kg/injection, schedule: Q01DX001 (ip), vehicle: alkali diluted with water
  T/C: 152 % of control
dose: 160.0 mg/kg/injection, schedule: Q01DX005 (ip), vehicle: saline with Tween-80
  T/C: 175 % of control
dose: 160.0 mg/kg/injection, schedule: Q01DX005 (ip), vehicle: saline
  T/C: 171 % of control
dose: 160.0 mg/kg/injection, schedule: Q01DX009 (ip), vehicle: alkali diluted with saline
  T/C: 101 % of control
dose: 160.0 mg/kg/injection, schedule: Q01DX009 (ip), vehicle: alkali diluted with water
  T/C: 114 % of control and 88 % of control
dose: 160.0 mg/kg/injection, schedule: Q01DX009 (ip), vehicle: other
  T/C: 87 % of control
dose: 165.0 mg/kg/injection, schedule: Q01DX001 (ip), vehicle: alkali diluted with saline
  T/C: 122 % of control

— PubChem BioAssay AID256 (DTP/NCI, 2004)
